We go through 13 compounds from ChEMBL document CHEMBL2163231, “Synthesis and antituberculosis activity of novel unfolded and macrocyclic derivatives of ent-kaurane steviol” (2012).

Structures are written as SMILES. Values after ≈ are worked out from the molar mass of the structure shown.

The assay has as its system Mycobacterium tuberculosis. Kind of assay: Antituberculosis activity against Mycobacterium tuberculosis H37Rv. Format: functional.
For the compound `C[C@]12CC[C@H]3[C@](CC[C@@H]4[C@]3(C)CCC[C@]4(C)C(=O)O)(C[C@@H]1OC(=O)CC(=O)O[C@@H]1C[C@]34CC[C@H]5[C@@](C)(CCC[C@@]5(C)C(=O)O)[C@@H]3CC[C@@]1(C)C4)C2`, the MIC was 12.5 µg/mL (≈ 17.6 µM). Next, `C[C@@H]1C[C@]23CC[C@@H]4[C@](C)(CCC[C@]4(C)C(=O)O)[C@H]2CC[C@@]1(OC(=O)CC(=O)O[C@]12CC[C@@H]4[C@](CC[C@H]5[C@@]4(C)CCC[C@@]5(C)C(=O)O)(C[C@@H]1C)C2)C3`: 5 µg/mL (≈ 7.05 µM). The figure for `C[C@]12CC[C@H]3[C@](CC[C@@H]4[C@]3(C)CCC[C@]4(C)C(=O)O)(C[C@@H]1OC(=O)CCCCCCCCC(=O)O[C@@H]1C[C@]34CC[C@H]5[C@@](C)(CCC[C@@]5(C)C(=O)O)[C@@H]3CC[C@@]1(C)C4)C2` is 12.5 µg/mL (≈ 15.5 µM). Take `C[C@@H]1C[C@]23CC[C@@H]4[C@]5(C)CCC[C@]4(C)C(=O)OCCCOC(=O)CC(=O)OCCCOC(=O)[C@]4(C)CCC[C@@]6(C)[C@@H]7CC[C@@]8(C[C@@]7(CC[C@@H]64)C[C@@H]8C)OC(=O)CCCCCCCCC(=O)O[C@]1(CC[C@@H]25)C3`: the MIC was determined as 20 µg/mL (≈ 20.2 µM). The figure for `C[C@H]1C[C@@]23CC[C@H]4[C@@](C)(CCC[C@@]4(C)C(=O)O)[C@@H]2CC[C@]1(O)C3` is 20 µg/mL (≈ 62.4 µM); for `C[C@]12CC[C@H]3[C@@]4(CC[C@@H]5[C@]3(C)CCC[C@]5(C)C(=O)OCCCOC(=O)CC(=O)OCCCOC(=O)[C@]3(C)CCC[C@@]5(C)[C@@H]6CC[C@@]7(C)C[C@]6(CC[C@@H]53)C[C@H]7OC(=O)CCCCCCCCC(=O)O[C@H]1C4)C2` it is 1 µg/mL (≈ 1.01 µM); for `C[C@@H]1C[C@]23CC[C@@H]4[C@]5(C)CCC[C@]4(C)C(=O)OC(=O)[C@]4(C)CCC[C@@]6(C)[C@@H]7CC[C@@]8(C[C@@]7(CC[C@@H]64)C[C@@H]8C)OC(=O)CCCCCCCCC(=O)O[C@]1(CC[C@@H]25)C3` it is 5 µg/mL (≈ 6.34 µM). In turn, `C[C@]12CC[C@H]3[C@](CC[C@@H]4[C@]3(C)CCC[C@]4(C)C(=O)O)(C[C@@H]1OC(=O)CCCCCCC(=O)O[C@@H]1C[C@]34CC[C@H]5[C@@](C)(CCC[C@@]5(C)C(=O)O)[C@@H]3CC[C@@]1(C)C4)C2` returned an MIC of 12.5 µg/mL (≈ 16 µM).

For `C[C@@H]1C[C@]23CC[C@@H]4[C@](C)(CCC[C@]4(C)C(=O)O)[C@H]2CC[C@@]1(OC(=O)CCCCCCCCC(=O)O)C3`, the MIC turned out to be 10 µg/mL (≈ 19.8 µM). Consider `NNC(=O)c1ccncc1` [ISONIAZID], for which the MIC was determined as 1 µg/mL (≈ 7.29 µM).

Compound `C[C@@]12CC[C@@H]3[C@@](CC[C@H]4[C@@]3(C)CCC[C@@]4(C)C(=O)O)(CC1=O)C2` [ISOSTEVIOL] displayed an MIC of 50 µg/mL (≈ 157 µM). Next, `C[C@@H]1C[C@]23CC[C@@H]4[C@](C)(CCC[C@]4(C)C(=O)O)[C@H]2CC[C@@]1(OC(=O)CCCCCCC(=O)O[C@]12CC[C@@H]4[C@](CC[C@H]5[C@@]4(C)CCC[C@@]5(C)C(=O)O)(C[C@@H]1C)C2)C3`: 20 µg/mL (≈ 25.7 µM); `C[C@@H]1C[C@]23CC[C@@H]4[C@](C)(CCC[C@]4(C)C(=O)O)[C@H]2CC[C@@]1(OC(=O)CCCCCCCCC(=O)O[C@]12CC[C@@H]4[C@](CC[C@H]5[C@@]4(C)CCC[C@@]5(C)C(=O)O)(C[C@@H]1C)C2)C3`: 20 µg/mL (≈ 24.8 µM).
